Reference: patent publication US9409905B2, “Antibacterial compounds and methods for use” (PTC THERAPEUTICS, INC., priority 2011, dated 2016)
≈ marks a conversion by molar mass, not a printed value.

Columns and labels:
E. coli 25922 = assay: Antibacterial activity, microbroth dilution MIC (Table 1); type: cell-based, Escherichia coli; details: Escherichia coli; microbroth dilution; control Gram-negative E. coli 25922 strain; read-out: MIC, 25922
Procedure, shortened: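 Each strain is exposed to test compound in a microbroth dilution series; visible growth is scored macroscopically, and the lowest growth-free concentration is recorded as MIC in μg/mL.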

[1] = tested on: Escherichia coli (E. coli) BAS849; assay: as above; type: cell-based; details: microbroth dilution, super sensitive Gram-negative E. coli BAS849, read-out: MIC, BAS849
Procedure, shortened: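 Using broth microdilution, MIC endpoints (μg/mL) mark where visible growth no longer appears; the panel spans sensitive and control Gram-negative strains plus a Gram-positive strain.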

[2] = tested on: Staphylococcus aureus (S. aureus) 29213; assay: as above; type: cell-based; details: microbroth dilution, Gram-positive S. aureus 29213, read-out: MIC, 29213
Procedure, shortened: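 Read-out: visual absence of growth. The lowest concentration meeting this gives the MIC, expressed in μg/mL, with microbroth dilution as the method.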

E. coli LZ3111 = assay: Antibacterial activity, MIC, quinolone resistant strain (Table 2); type: cell-based; details: Escherichia coli, LZ3111, read-out: MIC LZ3111
Procedure, shortened: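 Growth inhibition assessed by serial drug dilution in broth; endpoint was absence of macroscopically visible growth, reported as MIC, μg/mL.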

[3] = tested on: Acinetobacter baumannii (A. baumannii) BAA747; assay: Antibacterial activity, MIC (Table 4); type: cell-based; details: A. baumannii BAA747, read-out: MIC, BAA747
Procedure, shortened: (§1)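 Broth microdilution; MIC (μg/mL) = lowest concentration with no macroscopically visible growth. Resistant strains: multi-drug resistant clinical isolates.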

[4] = tested on: Klebsiella pneumoniae (K. pneumoniae) 35657; assay: Antibacterial activity, MIC (Table 4); type: cell-based; details: K. pneumoniae 35657, read-out: MIC, 35657
Procedure, shortened: as §1

[5] = tested on: Pseudomonas aeruginosa (P. aeruginosa) 27853; assay: Antibacterial activity, MIC (Table 5); type: cell-based; details: P. aeruginosa 27853, read-out: MIC, 27853
Procedure, shortened: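 Using a microbroth dilution format, the minimum inhibitory concentration was recorded as the lowest tested concentration that stopped visible bacterial growth, expressed in μg/mL.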

K. pneumoniae MXX1232 = assay: Antibacterial activity, MIC, resistant strain (Table 4); type: cell-based; details: Klebsiella pneumoniae, MXX1232; resistant K. pneumoniae MMX1232, multi-drug resistant clinical isolate; read-out: MIC, MMX1232
Procedure, shortened: as §1

A. baumannii MXX2240 = assay: as above; type: cell-based; details: Acinetobacter baumannii, MXX2240; resistant A. baumannii MMX2240, multi-drug resistant clinical isolate; read-out: MIC, MMX2240
Procedure, shortened: as §1

SMILES | MIC (E. coli 25922) [µg/mL] | MIC [1] [µg/mL] | MIC [2] [µg/mL] | MIC (E. coli LZ3111) [µg/mL] | MIC [3] [µg/mL] | MIC [4] [µg/mL] | MIC [5] [µg/mL] | MIC (K. pneumoniae MXX1232) [µg/mL] | MIC (A. baumannii MXX2240) [µg/mL]
Cc1c(-c2ccc3c(c2)cc(CNC2CC2)n3C)[nH]c(=O)c(C(=O)O)c1O [Cpd 355, 6-(2-((cyclopropylamino)methyl)-1-methyl-1H-indol-5-yl)-4-hydroxy-5-methyl-2-oxo-1,2-dihydropyridine-3-carboxylic acid] | 3.5 to 12.5 (≈ 9.53 to 34 µM) | < 1 | 12.5 to 150 (≈ 34 to 408 µM) | < 1 | 3.5 to 12.5 (≈ 9.53 to 34 µM) | 3.5 to 12.5 (≈ 9.53 to 34 µM) | 12.5 to 150 (≈ 34 to 408 µM) | 12.5 to 150 (≈ 34 to 408 µM) | < 1
Cc1c(-c2ccc3c(c2)cc(CNC2(C)CC2)n3C)[nH]c(=O)c(C(=O)O)c1O [Cpd 356, 4-hydroxy-5-methyl-6-(1-methyl-2-((1-methylcyclopropylamino)methyl)-1H-indol-5-yl)-2-oxo-1,2-dihydropyridine-3-carboxylic acid] | 3.5 to 12.5 (≈ 9.18 to 32.8 µM) | < 1 | 3.5 to 12.5 (≈ 9.18 to 32.8 µM) | < 1 | < 1 | 3.5 to 12.5 (≈ 9.18 to 32.8 µM) | 12.5 to 150 (≈ 32.8 to 393 µM) | 12.5 to 150 (≈ 32.8 to 393 µM) | < 1
CCN(CC)Cc1cc2cc(-c3[nH]c(=O)c(C(=O)O)c(O)c3C)ccc2n1C [Cpd 357, 6-(2-((diethylamino)methyl)-1-methyl-1H-indol-5-yl)-4-hydroxy-5-methyl-2-oxo-1,2-dihydropyridine-3-carboxylic acid] | 3.5 to 12.5 (≈ 9.13 to 32.6 µM) | < 1 | 12.5 to 150 (≈ 32.6 to 391 µM) | 1 to 3.5 (≈ 2.61 to 9.13 µM) | 3.5 to 12.5 (≈ 9.13 to 32.6 µM) | 3.5 to 12.5 (≈ 9.13 to 32.6 µM) | 12.5 to 150 (≈ 32.6 to 391 µM) | 12.5 to 150 (≈ 32.6 to 391 µM) | 3.5 to 12.5 (≈ 9.13 to 32.6 µM)
Cc1c(-c2ccc3c(c2)cc(CN)n3C)[nH]c(=O)c(C(=O)O)c1O [Cpd 358, 6-(2-(aminomethyl)-1-methyl-1H-indol-5-yl)-4-hydroxy-5-methyl-2-oxo-1,2-dihydropyridine-3-carboxylic acid] | 3.5 to 12.5 (≈ 10.7 to 38.2 µM) | 1 to 3.5 (≈ 3.05 to 10.7 µM) | 12.5 to 150 (≈ 38.2 to 458 µM) | 1 to 3.5 (≈ 3.05 to 10.7 µM) | 12.5 to 150 (≈ 38.2 to 458 µM) | 1 to 3.5 (≈ 3.05 to 10.7 µM) | 12.5 to 150 (≈ 38.2 to 458 µM) | 12.5 to 150 (≈ 38.2 to 458 µM) | 3.5 to 12.5 (≈ 10.7 to 38.2 µM)
CCc1c(-c2ccc3c(c2)c(F)c(CNC)n3C)[nH]c(=O)c(C(=O)O)c1O [Cpd 368, 5-ethyl-6-(3-fluoro-1-methyl-2-((methylamino)methyl)-1H-indol-5-yl)-4-hydroxy-2-oxo-1,2-dihydropyridine-3-carboxylic acid] | 1 to 3.5 (≈ 2.68 to 9.37 µM) | < 1 | 12.5 to 150 (≈ 33.5 to 402 µM) | 3.5 to 12.5 (≈ 9.37 to 33.5 µM) | 1 to 3.5 (≈ 2.68 to 9.37 µM) | 1 to 3.5 (≈ 2.68 to 9.37 µM) | 12.5 to 150 (≈ 33.5 to 402 µM) | 12.5 to 150 (≈ 33.5 to 402 µM) | 3.5 to 12.5 (≈ 9.37 to 33.5 µM)
CCNCc1c(F)c2cc(-c3[nH]c(=O)c(C(=O)O)c(O)c3CC)ccc2n1C [Cpd 369, 5-ethyl-6-(2-((ethylamino)methyl)-3-fluoro-1-methyl-1H-indol-5-yl)-4-hydroxy-2-oxo-1,2-dihydropyridine-3-carboxylic acid] | 1 to 3.5 (≈ 2.58 to 9.03 µM) | < 1 | 12.5 to 150 (≈ 32.3 to 387 µM) | 3.5 to 12.5 (≈ 9.03 to 32.3 µM) | 1 to 3.5 (≈ 2.58 to 9.03 µM) | < 1 | 12.5 to 150 (≈ 32.3 to 387 µM) | 12.5 to 150 (≈ 32.3 to 387 µM) | 3.5 to 12.5 (≈ 9.03 to 32.3 µM)
CCc1c(-c2ccc3c(c2)c(F)c(CNC(C)C)n3C)[nH]c(=O)c(C(=O)O)c1O [Cpd 370, 5-ethyl-6-(3-fluoro-2-((isopropylamino)methyl)-1-methyl-1H-indol-5-yl)-4-hydroxy-2-oxo-1,2-dihydropyridine-3-carboxylic acid] | < 1 | < 1 | 3.5 to 12.5 (≈ 8.72 to 31.1 µM) | 3.5 to 12.5 (≈ 8.72 to 31.1 µM) | 1 to 3.5 (≈ 2.49 to 8.72 µM) | 3.5 to 12.5 (≈ 8.72 to 31.1 µM) | 12.5 to 150 (≈ 31.1 to 374 µM) | 12.5 to 150 (≈ 31.1 to 374 µM) | 3.5 to 12.5 (≈ 8.72 to 31.1 µM)
CCc1c(-c2ccc3c(c2)c(F)c(CNC(C)(C)C)n3C)[nH]c(=O)c(C(=O)O)c1O [Cpd 371, 6-(2-((tert-butylamino)methyl)-3-fluoro-1-methyl-1H-indol-5-yl)-5-ethyl-4-hydroxy-2-oxo-1,2-dihydropyridine-3-carboxylic acid] | 1 to 3.5 (≈ 2.41 to 8.42 µM) | < 1 | 12.5 to 150 (≈ 30.1 to 361 µM) | 12.5 to 150 (≈ 30.1 to 361 µM) | 3.5 to 12.5 (≈ 8.42 to 30.1 µM) | 1 to 3.5 (≈ 2.41 to 8.42 µM) | 12.5 to 150 (≈ 30.1 to 361 µM) | 12.5 to 150 (≈ 30.1 to 361 µM) | 3.5 to 12.5 (≈ 8.42 to 30.1 µM)
CCc1cc(C(=O)O)c(=O)[nH]c1-c1ccc2c(ccn2C)c1OCc1ccccc1 [Cpd 372, 6-(4-(benzyloxy)-1-methyl-1H-indol-5-yl)-5-ethyl-2-oxo-1,2-dihydropyridine-3-carboxylic acid] | 12.5 to 150 (≈ 31.1 to 373 µM) | 12.5 to 150 (≈ 31.1 to 373 µM) | 12.5 to 150 (≈ 31.1 to 373 µM) | 12.5 to 150 (≈ 31.1 to 373 µM) | 12.5 to 150 (≈ 31.1 to 373 µM) | 12.5 to 150 (≈ 31.1 to 373 µM) | 12.5 to 150 (≈ 31.1 to 373 µM) | 12.5 to 150 (≈ 31.1 to 373 µM) | 12.5 to 150 (≈ 31.1 to 373 µM)
CCc1c(-c2ccc3c(ccn3C)c2OCc2ccccc2)[nH]c(=O)c(C(=O)O)c1O [Cpd 373, 6-(4-(benzyloxy)-1-methyl-1H-indol-5-yl)-5-ethyl-4-hydroxy-2-oxo-1,2-dihydropyridine-3-carboxylic acid] | 12.5 to 150 (≈ 29.9 to 358 µM) | 3.5 to 12.5 (≈ 8.36 to 29.9 µM) | 1 to 3.5 (≈ 2.39 to 8.36 µM) | 12.5 to 150 (≈ 29.9 to 358 µM) | 12.5 to 150 (≈ 29.9 to 358 µM) | 12.5 to 150 (≈ 29.9 to 358 µM) | 12.5 to 150 (≈ 29.9 to 358 µM) | 12.5 to 150 (≈ 29.9 to 358 µM) | 12.5 to 150 (≈ 29.9 to 358 µM)
CCc1c(-c2ccc3c(ccn3C)c2O)[nH]c(=O)c(C(=O)O)c1O [Cpd 374, 5-ethyl-4-hydroxy-6-(4-hydroxy-1-methyl-1H-indol-5-yl)-2-oxo-1,2-dihydropyridine-3-carboxylic acid] | 12.5 to 150 (≈ 38.1 to 457 µM) | 12.5 to 150 (≈ 38.1 to 457 µM) | 12.5 to 150 (≈ 38.1 to 457 µM) | 12.5 to 150 (≈ 38.1 to 457 µM) | 12.5 to 150 (≈ 38.1 to 457 µM) | 12.5 to 150 (≈ 38.1 to 457 µM) | 12.5 to 150 (≈ 38.1 to 457 µM) | 12.5 to 150 (≈ 38.1 to 457 µM) | 12.5 to 150 (≈ 38.1 to 457 µM)
C=CC1C(O)=C(C(=O)O)C(=O)NC1c1ccc2c(ccn2C)c1 (stereo not drawn) [Cpd 375, 4-hydroxy-6-(1-methyl-1H-indol-5-yl)-2-oxo-5-vinyl-1,2,5,6-tetrahydropyridine-3-carboxylic acid] | 12.5 to 150 (≈ 40 to 480 µM) | < 1 | 12.5 to 150 (≈ 40 to 480 µM) | 1 to 3.5 (≈ 3.2 to 11.2 µM) | 12.5 to 150 (≈ 40 to 480 µM) | 12.5 to 150 (≈ 40 to 480 µM) | 12.5 to 150 (≈ 40 to 480 µM) | 12.5 to 150 (≈ 40 to 480 µM) | 1 to 3.5 (≈ 3.2 to 11.2 µM)
